Values of other authors as cited in PubChem BioAssay AID1259409 (Chemical Carcinogenesis Research Information System (CCRIS), 2018).
Where “and” joins values, the source holds several entries; their conditions need not be identical. Identical values can stand only once.

Tested on: rodent chemically induced tumor inhibition, incidence and multiplicity
Assay: CCRIS tumor inhibitor studies

Q: With `O=C(O)/C=C/c1ccc(O)c(O)c1` as the compound, how does the “tumour outcome (control, treated, inhibition, significance)” value (Carcinogen: 4-NITROQUINOLINE-1-OXIDE, 56-57-5, Dose [Inhibitor]: 0, 500 PPM IN DIET FOR 7 WK BEGINNING 1 WK PRIOR TO START OF CARCINOGEN TREATMENT (STUDY DURATION: 32 WK), Route [Inhibitor]: ORAL, Species: RAT, Strain/Sex: F344/MALE, Target Tissue: Type of Lesion: TONGUE: PAPILLOMA, Dose [Carcinogen]: 20 PPM IN DRINKING WATER FOR 5 WK, Promoter: NONE USED) read?
A: 1/15 (7%), 0/15 (0%), 100%, not significant

Q: And the “tumour outcome (control, treated, inhibition, significance)” value (Carcinogen: 7,12-DIMETHYLBENZ[A]ANTHRACENE, 57-97-6, Dose [Inhibitor]: 0.5% IN POWDERED DIET BEGINNING 1 WK POST CARCINOGEN DOSE FOR 51 WK (STUDY DURATION: 52 WK), Route [Inhibitor]: ORAL, Species: RAT, Strain/Sex: SPRAGUE-DAWLEY/FEMALE, Target Tissue: Type of Lesion: EAR DUCT: BENIGN TUMOR, Dose [Carcinogen]: 2.5 MG/100 G BW IN 0.5 ML SESAME OIL ONCE, Promoter: NONE USED)?
A: 7/19 (37%), 10/19 (53%), -43%, not calculated

Q: And the “tumour outcome (control, treated, inhibition, significance)” value (Carcinogen: 7,12-DIMETHYLBENZ[A]ANTHRACENE, 57-97-6, Dose [Inhibitor]: 0.5% IN POWDERED DIET BEGINNING 1 WK POST CARCINOGEN DOSE FOR 51 WK (STUDY DURATION: 52 WK), Route [Inhibitor]: ORAL, Species: RAT, Strain/Sex: SPRAGUE-DAWLEY/FEMALE, Target Tissue: Type of Lesion: MAMMARY GLAND: CARCINOMA, Dose [Carcinogen]: 2.5 MG/100 G BW IN 0.5 ML SESAME OIL ONCE, Promoter: NONE USED)?
A: 6/19 (32%), 9/19 (47%), -50%, not calculated

Q: And the “tumour outcome (control, treated, inhibition, significance)” value (Carcinogen: 7,12-DIMETHYLBENZ[A]ANTHRACENE, 57-97-6, Dose [Inhibitor]: 0.5% IN POWDERED DIET BEGINNING 1 WK POST CARCINOGEN DOSE FOR 51 WK (STUDY DURATION: 52 WK), Route [Inhibitor]: ORAL, Species: RAT, Strain/Sex: SPRAGUE-DAWLEY/FEMALE, Target Tissue: Type of Lesion: MAMMARY GLAND: FIBROADENOMA, Dose [Carcinogen]: 2.5 MG/100 G BW IN 0.5 ML SESAME OIL ONCE, Promoter: NONE USED)?
A: 15/19 (79%), 11/19 (58%), 27%, not calculated

Q: What about the “tumour outcome (control, treated, inhibition, significance)” value (Carcinogen: 7,12-DIMETHYLBENZ[A]ANTHRACENE, 57-97-6, Dose [Inhibitor]: 10 UMOL IN 200 µL ACETONE/DMSO (90:10) 2/WK FOR 19 WK BEGINNING 1 WK POST CARCINOGEN DOSE (STUDY DURATION: 20 WK), Route [Inhibitor]: DERMAL, Species: MOUSE, Strain/Sex: CD-1/FEMALE, Target Tissue: Type of Lesion: SKIN: PAPILLOMA, Dose [Carcinogen]: 200 NMOL IN 200 µL ACETONE ONCE, Promoter: 12-O-TETRADECANOYLPHORBOL-13-ACETATE, 16561-29-8) of the same compound?
A: 68%, 47%, 31%, not calculated

Q: And the “tumour outcome (control, treated, inhibition, significance)” value (Carcinogen: 7,12-DIMETHYLBENZ[A]ANTHRACENE, 57-97-6, Dose [Inhibitor]: 20 UMOL IN 200 µL ACETONE/DMSO (90:10) 2/WK FOR 19 WK BEGINNING 1 WK POST CARCINOGEN DOSE (STUDY DURATION: 20 WK), Route [Inhibitor]: DERMAL, Species: MOUSE, Strain/Sex: CD-1/FEMALE, Target Tissue: Type of Lesion: SKIN: PAPILLOMA, Dose [Carcinogen]: 200 NMOL IN 200 µL ACETONE ONCE, Promoter: 12-O-TETRADECANOYLPHORBOL-13-ACETATE, 16561-29-8)?
A: 68%, 38%, 44%, not calculated

Q: What about the “tumour outcome (control, treated, inhibition, significance)” value (Carcinogen: BENZO[A]PYRENE, 50-32-8, Dose [Inhibitor]: 0.06 MMOL/G OF DIET STARTING 8 D BEFORE AND CONTINUING THROUGH 3 D AFTER LAST CARCINOGEN TREATMENT (STUDY DURATION: 148, Route [Inhibitor]: ORAL, Species: MOUSE, Strain/Sex: ICR/FEMALE, Target Tissue: Type of Lesion: FORESTOMACH: NEOPLASM, Dose [Carcinogen]: 1 MG IN 0.2 ML CORN OIL 2/WK FOR 4 WK, Promoter: NONE USED) of the same compound?
A: 100%, 94%, 6%, not significant

Q: What about the “tumour outcome (control, treated, inhibition, significance)” value (Carcinogen: N-NITROQUINOLINE-1-OXIDE, 56-57-5, Dose [Inhibitor]: 0, 500 PPM IN DIET FOR 7 WK BEGINNING 1 WK PRIOR TO START OF CARCINOGEN TREATMENT (STUDY DURATION: 32 WK), Route [Inhibitor]: ORAL, Species: RAT, Strain/Sex: F344\MALE, Target Tissue: Type of Lesion: TONGUE: CARCINOMA, Dose [Carcinogen]: 20 PPM IN DRINKING WATER FOR 5 WK, Promoter: NONE USED) of the same compound?
A: 9/15 (60%), 0/15 (0%), 100%, p=0.00035

Q: What does the source list for `COc1ccc(C(c2ccc(OC)cc2)C(Cl)(Cl)Cl)cc1`?
A: outcome (Carcinogen: N-NITROSOBIS(2-HYDROXYPROPYL)AMINE, 53609-64-6, Dose [Inhibitor]: 0, 1000 PPM IN DIET FOR 27 WK BEGINNING 9 WK POST CARCINOGEN TREATMENT (STUDY DURATION: 37 WK), Route [Inhibitor]: ORAL, Species: RAT, Strain/Sex: F344/FEMALE, Target Tissue: Type of Lesion: THYROID GLAND: ADENOMA, Dose [Carcinogen]: 2000 MG/KG BW 1 WK POST BILATERAL OVARIECTOMY, Promoter: SULFADIMETHOXINE, 122-11-2): 0/12 (0%), 2/15 (13%), not significant; tumour outcome (control, treated, inhibition, significance) (Carcinogen: N-NITROSOBIS(2-HYDROXYPROPYL)AMINE, 53609-64-6, Dose [Inhibitor]: 0, 1000 PPM IN DIET FOR 27 WK BEGINNING 9 WK POST CARCINOGEN TREATMENT (STUDY DURATION: 37 WK), Route [Inhibitor]: ORAL, Species: RAT, Strain/Sex: F344/FEMALE, Target Tissue: Type of Lesion: THYROID GLAND: CARCINOMA, Dose [Carcinogen]: 2000 MG/KG BW 1 WK POST BILATERAL OVARIECTOMY, Promoter: SULFADIMETHOXINE, 122-11-2): 10/12 (83%), 6/15 (40%), 52%, p<0.05

Q: Which “tumour outcome (control, treated, inhibition, significance)” value (Carcinogen: 7,12-DIMETHYLBENZ[A]ANTHRACENE, 57-97-6, Dose [Inhibitor]: 0, 0.5 MG/G BW IN 0.9% SALINE ONCE 1 HR PRIOR TO FIRST PROMOTER DOSE (STUDY DURATION: 22 WK), Route [Inhibitor]: INTRAPERITONEAL, Species: MOUSE, Strain/Sex: NMRI/FEMALE, Target Tissue: Type of Lesion: SKIN: PAPILLOMA, Dose [Carcinogen]: 50 UG/G BW IN SESAME OIL) does the source give for `NC(=O)NO` here?
A: 95%, 79%, 17%, not significant

Q: What about the “tumour outcome (control, treated, inhibition, significance)” value (Carcinogen: 7,12-DIMETHYLBENZ[A]ANTHRACENE, 57-97-6, Dose [Inhibitor]: 0, 0.5 MG/G BW IN 0.9% SALINE ONCE 6 HR POST FIRST PROMOTER DOSE (STUDY DURATION: 22 WK), Route [Inhibitor]: INTRAPERITONEAL, Species: MOUSE, Strain/Sex: NMRI/FEMALE, Target Tissue: Type of Lesion: SKIN: PAPILLOMA, Dose [Carcinogen]: 50 UG/G BW IN SESAME OIL) of the same compound?
A: 95%, 65%, 32%, not calculated

Q: What about the “tumour outcome (control, treated, inhibition, significance)” value (Carcinogen: 7,12-DIMETHYLBENZ[A]ANTHRACENE, 57-97-6, Dose [Inhibitor]: 0, 0.5 MG/G BW IN 0.9% SALINE ONCE 12 HR POST FIRST PROMOTER DOSE (STUDY DURATION: 22 WK), Route [Inhibitor]: INTRAPERITONEAL, Species: MOUSE, Strain/Sex: NMRI/FEMALE, Target Tissue: Type of Lesion: SKIN: PAPILLOMA, Dose [Carcinogen]: 50 UG/G BW IN SESAME OIL) of the same compound?
A: 95%, 60%, 37%, not calculated and 95%, 59%, 38%, not calculated

Q: And the “tumour outcome (control, treated, inhibition, significance)” value (Carcinogen: 7,12-DIMETHYLBENZ[A]ANTHRACENE, 57-97-6, Dose [Inhibitor]: 0, 0.5 MG/G BW IN 0.9% SALINE ONCE 18 HR POST FIRST PROMOTER DOSE (STUDY DURATION: 22 WK), Route [Inhibitor]: INTRAPERITONEAL, Species: MOUSE, Strain/Sex: NMRI/FEMALE, Target Tissue: Type of Lesion: SKIN: PAPILLOMA, Dose [Carcinogen]: 50 UG/G BW IN SESAME OIL)?
A: 95%, 33%, 65%, not calculated and 95%, 30%, 68%, not calculated and 93%, 33%, 65%, not calculated

Q: What about the “tumour outcome (control, treated, inhibition, significance)” value (Carcinogen: 7,12-DIMETHYLBENZ[A]ANTHRACENE, 57-97-6, Dose [Inhibitor]: 0, 0.5 MG/G BW IN 0.9% SALINE ONCE 24 HR POST FIRST PROMOTER DOSE (STUDY DURATION: 22 WK), Route [Inhibitor]: INTRAPERITONEAL, Species: MOUSE, Strain/Sex: NMRI/FEMALE, Target Tissue: Type of Lesion: SKIN: PAPILLOMA, Dose [Carcinogen]: 50 UG/G BW IN SESAME OIL) of the same compound?
A: 95%, 39%, 59%, not calculated and 95%, 45%, 53%, not calculated

Q: What about the “tumour outcome (control, treated, inhibition, significance)” value (Carcinogen: 7,12-DIMETHYLBENZ[A]ANTHRACENE, 57-97-6, Dose [Inhibitor]: 0, 0.5 MG/G BW IN 0.9% SALINE ONCE 48 HR POST FIRST PROMOTER DOSE (STUDY DURATION: 22 WK), Route [Inhibitor]: INTRAPERITONEAL, Species: MOUSE, Strain/Sex: NMRI/FEMALE, Target Tissue: Type of Lesion: SKIN: PAPILLOMA, Dose [Carcinogen]: 50 UG/G BW IN SESAME OIL) of the same compound?
A: 95%, 94%, 1%, not significant

Q: What does the source list for `N[C@@H]1C[C@H]1c1ccccc1`?
A: tumour outcome (control, treated, inhibition, significance) (Carcinogen: N-METHYL-N-NITROSOUREA, 684-93-5, Dose [Inhibitor]: 10 MG/KG OF HIGH (20%) FAT DIET BEGINNING 1 WK POST CARCINOGEN DOSE AND CONTINUING FOR DURATION OF STUDY (STUDY DURATION, Route [Inhibitor]: ORAL, Species: RAT, Strain/Sex: SPRAGUE-DAWLEY/FEMALE, Target Tissue: Type of Lesion: MAMMARY GLAND: TUMOR, Dose [Carcinogen]: 40 MG/KG ONCE, Promoter: NONE USED): 78%, 88%, -13%, not calculated; tumour outcome (control, treated, inhibition, significance) (Carcinogen: N-METHYL-N-NITROSOUREA, 684-93-5, Dose [Inhibitor]: 10 MG/KG OF LOW (3%) FAT DIET BEGINNING 1 WK POST CARCINOGEN DOSE AND CONTINUING FOR DURATION OF STUDY (STUDY DURATION:, Route [Inhibitor]: ORAL, Species: RAT, Strain/Sex: SPRAGUE-DAWLEY/FEMALE, Target Tissue: Type of Lesion: MAMMARY GLAND: TUMOR, Dose [Carcinogen]: 40 MG/KG ONCE, Promoter: NONE USED): 78%, 83%, -6%, not calculated
